According to US20070134261A1, “Effectors of innate immunity” (priority 2001, published 2007):
Converted amounts (≈) assume the structure as drawn. Read-outs that look alike come from different tables or passages of the source. Marks after values point to notes of the source that are not given here. Residues, ends and D or L forms follow the SMILES beside them.

Key:
[1] = tested on: Human Jurkat T cells; experiment: SDF-1 induced migration of human Jurkat T cells (Transwell); assay type: cell-based; conditions: positive control 100%
Protocol: SDF-1, a C-X-C chemokine is a natural ligand for HIV-1 coreceptor-CXCR4. The chemokine receptors CXCR4 and CCR5 are considered to be potential targets for the inhibition of HIV-1 replication. […] The migration assays were performed as follows. Human Jurkat T cells were resuspended to 5×10^6/ml in chemotaxis medium (RPMI 1640/10 mM Hepes/0.5% BSA). Migration assays were performed in 24 well plates using […] polycarbonate Transwell inserts (Costar). Briefly, peptide or controls were diluted in chemotaxis medium and placed in the lower chamber while 0.1 ml cells (5×10^6/ml) was added to the upper chamber. After 3 hr at 37° C., the number of cells that had migrated into the lower chamber was determined using flow cytometry. The medium from the lower chamber was passed through a FACscan for 30 seconds, gating on forward and side scatter to exclude cell debris. The number of live cells was compared to a “100% migration control” in which 5×10^5/ml cells had been pipetted directly into the lower chamber and then counted on the FACscan for 30 seconds.

[2] = tested on: A549 human epithelial cells; experiment: Induction of chemokines (IL-8, MCP-1) in A549 cells (ELISA); assay type: cell-based; conditions: peptide 10 ug/ml, 24 hr
Protocol: The murine macrophage cell line RAW 264.7, THP-1 cells (human monocytes), a human epithelial cell line (A549), human bronchial epithelial cells (16HBEo14), and whole human blood were used. HBE cells were grown in MEM with Earle's. THP-1 cells were grown and maintained in RPMI 1640 medium. The RAW and A549 cell lines were maintained in DMEM supplemented with 10% fetal calf serum. […] DMEM was aspirated from cells grown overnight and replaced with fresh medium. After incubation of the cells with peptide, the release of chemokines into the culture supernatant was determined by ELISA (R&D Systems, Minneapolis, Minn.).

[3] = tested on: Salmonella; experiment: Salmonella infection in BALB/c mice (viable bacteria in spleen); assay type: in vivo, mouse; conditions: mouse, in vivo, ip
Protocol: (§1) BALB/c mice were given 1×10^5 Salmonella and cationic peptide (200 μg) by intraperitoneal injection. The mice were monitored for 24 hours at which point they were euthanized, the spleen removed, homogenized and resuspended in PBS and plated on Luria Broth agar plates with Kanamycin (50 μg/ml). The plates were incubated overnight at 37° C. and counted for viable bacteria (Table 49 and 50). CD-1 mice were given 1×10^8 S. aureus in 5% porcine mucin and cationic peptide (200 μg) by intraperitoneal injection (Table 51). The mice were monitored for 3 days at which point they were euthanized, blood removed and plated for viable counts. CD-1 male mice were given 5.8×10^6 CFU EHEC bacteria and cationic peptide (200 μg) by intraperitoneal (IP) injection and monitored for 3 days (Table 52). […] Many of the cationic peptides were shown not to be directly antimicrobial as tested by the Minimum Inhibitory Concentration (MIC) assay (Table 54).

[4] = tested on: S. aureus; experiment: Murine S. aureus infection model (CD-1 mice); assay type: in vivo, mouse; conditions: peptide 200 μg IP; for CFU/ml (blood): 3 days, No Peptide 7.61 ± 1.7 × 10^3; for # Mice Survived (3 days)/Total mice in group: No Peptide 6/8
Protocol: as §1

[5] = assay type: cell-based
[6] = tested on: A549 epithelial cells; experiment: Human Operon arrays (PRHU04-S1) of A549 cells treated with peptide alone (Tables 31-37, 53); conditions: 50 μg/ml, 4 h
[7] = tested on: Human monocytic cells, THP-1; experiment: LPS-induced TNFα secretion by THP-1 cells (ELISA); conditions: LPS stimulation for 60 min
[8] = tested on: S. Typhimurium SL1344; experiment: Intracellular survival/replication of S. Typhimurium SL1344 in IFN-γ-primed RAW cells (gentamicin-resistance assay); assay type: cell-based, Salmonella Typhimurium; conditions: pretreated with inhibitor 30 min prior to infection (50 μM U 0126, 50 μM PD 98059)
[9] = tested on: RAW 264.7 mouse macrophage cells; assay type: cell-based; conditions: Peptide 20 μg/ml; 100 ng/ml E. coli 0111:B4 LPS, 6 h
[10] = tested on: BALB/c mice; experiment: Lethal endotoxemia in galactosamine-sensitized BALB/c mice; assay type: in vivo; conditions: 2 μg LPS; peptide 200 μg/mouse = 8 mg/kg IP 15 min after LPS; 48 hours; no peptide 10
[11] = tested on: human bronchial epithelial cells (HBE); experiment: LDH release assay (Cytotoxicity Detection Kit); assay type: cell-based; conditions: 100 μg/ml, 24 hours; no peptide control 1.0 ± 0.05
Procedure, shortened: (§2)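 Both read-outs were colorimetric at OD490 on HBE cells after 24 h with 100 μg of each peptide. The WST-1 assay reported viability through mitochondrial dehydrogenase cleavage of the tetrazolium salt. The LDH assay tested the removed supernatant for enzyme leaked from membrane-damaged cells.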

[12] = tested on: HBE cells; experiment: WST-1 assay (cell viability); assay type: cell-based, human
Procedure, shortened: as §2

[13] = Staphylococcus aureus, overnight, 96-well plate

Which results are given for “SEQ 1D 1 (LLGDFFRKSKEKIGKEFKRIVQRIKDFLRNLVPRTES)”?
Migration (%) ([1]; Experiment 1, SDF-1 + peptide (50 μg/ml)): 0%; Migration (%) ([1]; Experiment 2, SDF-1 + peptide (50 μg/ml)): 0%

Which results are given for `CSCC[C@H](NC(=O)CNC(=O)[C@H](CCCNC(=N)N)NC(=O)[C@H](CCSC)NC(=O)[C@H](C)NC(=O)[C@@H](NC(=O)[C@H](CCCCN)NC(=O)[C@@H](NC(=O)[C@H](CS)NC(=O)[C@H](CCC(N)=O)NC(=O)[C@@H](N)CCCCN)C(C)C)C(C)C)C(=O)N[C@@H](C)C(=O)N[C@@H](CC(C)C)C(=O)N[C@@H](CCCNC(=N)N)C(=O)N[C@@H](CCCNC(=N)N)C(=O)N[C@@H](CS)C(=O)N[C@@H](CCCCN)C(=O)O` [SEQ ID NO: 30] (H-KQCVKVAMRGMALRRCK-OH; N-terminus and C-terminus assumed)?
IL-8 [2]: 0.284 ng/mL; Viable Bacteria in the Spleen [3]: 5.79 ± 0.43 × 10^3 CFU/ml; CFU/ml (blood) [4]: 1.29 ± 0.04 × 10^2 CFU/ml; # Mice Survived (3 days)/Total mice in group [4]: 4/4; MIC, C. rhod. ([5]; 24 h): 16 µg/mL (≈ 8.09 µM); MIC, E. coli ([5]; 24 h): 16 µg/mL (≈ 8.09 µM); MIC, EHEC ([5]; 24 h): 4 µg/mL (≈ 2.02 µM); MIC, P. aerug. ([5]; 24 h): 128 µg/mL (≈ 64.7 µM); MIC, S. typhim. ([5]; 24 h): 16 µg/mL (≈ 8.09 µM); MIC, S. aureus [5, 13]: >; Fold Up regulation of Gene Expression relative to Untreated Cells: Cell cycle gene (S70622) [6]: 8.5 fold; Fold Up regulation of Gene Expression relative to Untreated Cells: Dehydrogenase (D17793) [6]: 2.3 fold; Fold Up regulation of Gene Expression relative to Untreated Cells: Forkhead protein (AF042832) [6]: 14.1 fold; Fold Up regulation of Gene Expression relative to Untreated Cells: Homeobox protein (AC004774) [6]: 3.2 fold; Fold Up regulation of Gene Expression relative to Untreated Cells: Hypothetical Protein (AK002104) [6]: 4.7 fold; Fold Up regulation of Gene Expression relative to Untreated Cells: Hypothetical Protein (AL022393) [6]: 4.4 fold; Fold Up regulation of Gene Expression relative to Untreated Cells: IL-10 Receptor (U00672) [6]: 2.6 fold; Fold Up regulation of Gene Expression relative to Untreated Cells: KIAA0284 Protein (AB006622) [6]: 3.4 fold; Fold Up regulation of Gene Expression relative to Untreated Cells: Peroxisome factor (AB013818) [6]: 3.4 fold; Fold Up regulation of Gene Expression relative to Untreated Cells: Polypeptide (AF105424) [6]: 2.5 fold; Fold Up regulation of Gene Expression relative to Untreated Cells: Protein (AL050261) [6]: 3.3 fold; Fold Up regulation of Gene Expression relative to Untreated Cells: Receptor (AF112461) [6]: 2.4 fold; Fold Up regulation of Gene Expression relative to Untreated Cells: SPR1 protein (AB031480) [6]: 3.0 fold; Fold Up regulation of Gene Expression relative to Untreated Cells: Transferase (AF038664) [6]: 12.3 fold; Fold Up regulation of Gene Expression relative to Untreated Cells: Transferase (M63509) [6]: 2.7 fold; Fold Up regulation of Gene Expression relative to Untreated Cells: Unknown (AL096803) [6]: 4.8 fold; Fold Up regulation of Gene Expression relative to Untreated Cells: Zinc finger protein (AF061261) [6]: 2.6 fold

For `CC[C@@]1([C@@H]2O[C@@H]([C@H]3O[C@@](O)(CO)[C@H](C)C[C@@H]3C)C[C@@H]2C)CC[C@H]([C@]2(C)CC[C@]3(C[C@H](O)[C@@H](C)[C@@H]([C@@H](C)[C@@H](OC)[C@H](C)C(=O)O)O3)O2)O1` [Monensin], which “TNFα within cells (cytoplasmic extracts)” value [7] is on record?
The value was “accumulation of TNFα within cells”.

For SDF-1, which “Migration (%)” value ([1]; Experiment 1, SDF-1 (100 ng/ml) alone) is on record?
Its value is 32%.

And the “Migration (%)” value ([1]; Experiment 2, SDF-1 (100 ng/ml) alone)?
The value was 40%.

With `N#CC(=C(/N)Sc1ccccc1N)/C(C#N)=C(\N)Sc1ccccc1N` [U 0126] as the molecule, how does the “Effect: bacterial filamentation (bacterial stress)” value [8] read?
Its value is “Decrease bacterial filamentation (bacterial stress)^c”.

And the “Effect: number of intracellular S. Typhimurium” value [8]?
The value was “Increase in the number of intracellular S. Typhimurium”.

With `CC[C@H](C)[C@H](NC(=O)[C@H](CCCNC(=N)N)NC(=O)[C@H](CS)NC(=O)[C@H](CC(C)C)NC(=O)[C@@H](N)CC(C)C)C(=O)N[C@H](C(=O)N1CCC[C@H]1C(=O)N[C@H](C(=O)N[C@H](C(=O)N1CCC[C@H]1C(=O)N[C@@H](Cc1c[nH]c2ccccc12)C(=O)N[C@@H](CS)C(=O)N[C@@H](CCCCN)C(=O)O)[C@@H](C)CC)C(C)C)C(C)C` [SEQ ID NO: 5] (H-LLCRIVPVIPWCK-OH; N-terminus and C-terminus assumed) as the molecule, how does the “Inhibition of TNF-α” value [9] read?
Its value is 65.6 ± 1.6%.

And the Survival [10]?
Its Survival is 17%.

What about the “Viable Bacteria in the Spleen” value [3] of the same molecule?
Its value is 2.75 ± 0.59 × 10^4 CFU/ml.

What about the “CFU/ml (blood)” value [4] of the same molecule?
Its value is 3.28 ± 1.7 × 10^3 CFU/ml.

And the “# Mice Survived (3 days)/Total mice in group” value [4]?
Its value is 4/4.

And the “MIC, C. rhod.” value ([5]; 24 h)?
Its value is 64 µg/mL (≈ 41.6 µM).

And the “MIC, E. coli” value ([5]; 24 h)?
The value was 128 µg/mL (≈ 83.1 µM).

What about the “MIC, EHEC” value ([5]; 24 h) of the same molecule?
Its value is 64 µg/mL (≈ 41.6 µM).

And the “MIC, S. aureus” value [5, 13]?
Its value is “>”.

Which “Effect: bacterial filamentation (bacterial stress)” value [8] does the source give for `COc1cccc(-c2cc(=O)c3ccccc3o2)c1N` [PD 98059] here?
The value was “Decrease bacterial filamentation (bacterial stress)^c”.

And the “Effect: number of intracellular S. Typhimurium” value [8]?
Its value is “Increase in the number of intracellular S. Typhimurium”.

For `CC[C@H](C)[C@H](NC(=O)[C@H](CS)NC(=O)[C@H](CCSC)NC(=O)[C@H](CCCNC(=N)N)NC(=O)[C@@H](N)CCCNC(=N)N)C(=O)N[C@@H](CCCCN)C(=O)N[C@H](C(=O)N[C@@H](CS)C(=O)N[C@H](C(=O)N[C@@H](CCCNC(=N)N)C(=O)NCC(=O)N[C@H](C(=O)N[C@@H](CS)C(=O)N[C@@H](CCCNC(=N)N)C(=O)N[C@@H](CCCNC(=N)N)C(=O)N[C@@H](CCCCN)C(=O)N[C@@H](CS)C(=O)N[C@@H](CCCNC(=N)N)C(=O)N[C@@H](CCCCN)C(=O)O)C(C)C)C(C)C)C(C)C` [SEQ ID NO: 26] (H-RRMCIKVCVRGVCRRKCRK-OH; N-terminus and C-terminus assumed), which “Inhibition of TNF-α” value [9] is on record?
Its value is 54.9 ± 1.6%.

What about the Survival [10] of the same molecule?
Its Survival is 0%.

And the “LDH Release (OD490 nm)” value [11]?
The value was 0.93 ± 0.04 OD490 nm.

And the “OD490 nm (WST-1 cell viability)” value [12]?
Its value is 1.42 ± 0.11 OD490 nm.

And the IL-8 [2]?
The IL-8 was 0.201 ng/mL.

What about the “Viable Bacteria in the Spleen” value [3] of the same molecule?
Its value is 7.1 ± 1.37 × 10^4 CFU/ml.

And the “MIC, C. rhod.” value ([5]; 24 h)?
The value was 2 µg/mL (≈ 0.851 µM).

What about the “MIC, E. coli” value ([5]; 24 h) of the same molecule?
Its value is 0.5 µg/mL (≈ 0.213 µM).

And the “MIC, EHEC” value ([5]; 24 h)?
The value was 0.5 µg/mL (≈ 0.213 µM).

What about the “MIC, P. aerug.” value ([5]; 24 h) of the same molecule?
The value was 64 µg/mL (≈ 27.2 µM).

And the “MIC, S. aureus” value ([5]; 24 h)?
Its value is 32 µg/mL (≈ 13.6 µM).

And the “MIC, S. typhim.” value ([5]; 24 h)?
Its value is 2 µg/mL (≈ 0.851 µM).
